Earlier results as cited in patent US9333171B2, “Controlled-release CNS modulating compositions and methods for the treatment of otic disorders” (Otonomy, Inc., priority 2008, dated 2016).

How the values were obtained:
V2-R = conditions: infusion into the scala tympani
guinea pigs = conditions: chronic administration in guinea pigs

Row | Compound | Effect on Meniere's disease symptoms (V2-R) | Induction of endolymphatic hydrops (guinea pigs)
1 | Cc1ccccc1C(=O)Nc1ccc(C(=O)N2CCCC(N(C)C)c3ccccc32)cc1 (centres unmarked) [OPC-31260] | marked reduction of Meniere's disease symptoms | –
2 | NC(=O)CC[C@@H]1NC(=O)[C@H](Cc2ccccc2)NC(=O)[C@H](Cc2ccc(O)cc2)NC(=O)[C@@H](N)CSSC[C@@H](C(=O)N2CCC[C@H]2C(=O)N[C@@H](CCCN=C(N)N)C(=O)NCC(N)=O)NC(=O)[C@H](CC(N)=O)NC1=O [VP, vasopressin] | – | induce endolymphatic hydrops
